Measurements published in patent US10450300B2, “Wnt signaling pathway inhibitors and therapeutic applications thereof” (Suzhou Yunxuan Yiyao Keji Youxian Gongsi, priority 2015, dated 2019).

Test system: Wnt pathway
Assay: Wnt pathway Super-top flash (STF) reporter gene assay (primary assay)
Type: cell-based
Conditions: HEK293 STF cells co-cultured 1:1 with L Wnt3A cells; 48 h incubation; inhibition of luminescence signaling
Method: The primary assay is based on Wnt pathway Super-top flash (STF) reporter gene assay:
HEK293 STF stable clones (HEK293 cells stably transfected with “Super-Top Flash” TCF-luciferase reporter plasmid) were kept in complete culture medium (DMEM with 4 mM L-Gln, 1.5 g/L sodium bicarbonate and 4.5 g/L glucose containing 6 μg/mL Blasticidin and 10% FBS). L Wnt3A cells (CRL-2647, ATCC) were kept in DMEM (Gibico) containing 10% FBS (Hyclone). HEK293 STF and L Wnt3A cells were harvested when 90% confluence and cell suspension was mixed with a fixed ratio of 1:1 (HEK293 STF: L Wnt3A). 100 μL/well of mixed cells suspension was added to the 96-well-plate with final cell concentration of 12,000 cells/well and then cultured for an additional 24 hours before adding compounds.
Compounds were diluted in DMSO in sequence and then diluted with DMEM medium. 20 μL medium containing compound was added to the cells according to the pre-setting dose. Cell plates were incubated at 37° C. for an additional 48 hours.
50 μL luciferase solution (Bright-Glo, Promega) was added to each well […] the 48 h incubation. The plates were incubated at room temperature for 5 min under gentle shaking. Luminescence signaling was measured with a plate reader (PHERAstar FS, BMG). The IC50 (potency) of compounds was calculated based on the inhibition of luminescence signaling.

Row | Compound | IC50
1 | COc1cc(CNc2nsc(-c3cc4cccnc4cn3)n2)cnc1-c1ccnc(C)c1 [Compound A-196, N-((3-methoxy-2′-methyl-2,4′-bipyridin-5-yl)methyl)-5-(1,7-naphthyridin-6-yl)-1,2,4-thiadiazol-3-amine] | 0.78 nM
2 | Cc1cc(-c2ncc(CNc3ncnc(N4CCc5ncncc5C4)c3F)cc2F)ccn1 [Compound A-62] | 6.2 nM
3 | Cc1cc(-c2ncc(CNc3nccc(-c4cncc(Cl)c4)c3F)cc2F)ccn1 [Compound A-116] | 8 nM
4 | Cc1cc(-c2ccc(CNc3cc(Cl)nc(N4CCc5ccccc5C4)n3)cc2)ccn1 [Compound A-135] | 3000 nM
5 | N#Cc1ccc2nc(CNc3ncnc(N4CCc5ncccc5C4)c3F)ccc2c1 [Compound A-74] | 1.6 nM
6 | O=S1(=O)CCN(c2ccc(CNc3ncnc(-c4ccc5ncccc5c4)c3F)cn2)CC1 [Compound A-68] | 16 nM
7 | Cc1cc(-c2ccc(CNc3cc(N4CCCC4)nc(N4CCc5ccccc5C4)n3)cc2)ccn1 [Compound A-136] | 4000 nM
8 | Cc1cc(-c2ccc(C(C)Nc3cc(-c4ccc5ccccc5c4)ncn3)cc2)ccn1 (centres unmarked) [Compound A-147] | 40 nM
9 | Cc1cc(-c2ncc(CNc3ncnc(N4CCc5ncccc5C4)c3F)cc2C)ccn1 [Compound A-46] | 4.9 nM
10 | Cc1cc(-c2ccc(CNc3ncnc(N4CCc5ccccc5C4C)c3F)cc2)ccn1 (centres unmarked) [Compound A-70] | 147 nM
11 | Cc1cc(-c2ncc(CNc3nccc(-c4cncc(Cl)c4)c3F)cc2C#N)ccn1 [Compound A-130] | 0.11 nM
12 | Cc1cc(-c2ccc(CNc3nccc(N4CCc5ccccc5C4)n3)cc2)ccn1 [Compound A-155] | 229 nM
13 | COc1cc(CNc2ncnc(N3CCn4nccc4C3)c2F)cnc1-c1ccnc(C)c1 [Compound A-94] | 0.8 nM
14 | Cc1cc(-c2ncc(CNc3ncnc(N4CCc5ncccc5C4)c3F)cc2C#N)ccn1 [Compound A-56] | 1 nM
15 | Cc1cc(-c2ncc(CNc3nccc(-c4ccc(=O)n(C)c4)c3F)cc2F)ccn1 [Compound A-117] | 2 nM
16 | Cc1cc(-c2ccc(CNc3cc(N4CCc5ccccc5C4)ncn3)cc2)ccn1 [Compound A-133] | 34 nM
17 | Cc1cc(-c2ncc(CNc3nccc(-c4cnn(C)c4)c3F)cc2C#N)ccn1 [Compound A-128] | 1.8 nM
18 | CNc1ncc2c(n1)CCN(c1cc(NCc3ccc(-c4ccnc(C)c4)cc3)ncn1)C2=O [Compound A-138, 2-(methylamino)-6-(6-(4-(2-methylpyridin-4-yl)benzylamino)pyrimidin-4-yl)-7,8-dihydropyrido[4,3-d]pyrimidin-5(6H)-one] | 712 nM
19 | Cc1cc(-c2ncc(CNc3ncnc(N4CCS(=O)(=O)CC4)c3F)cc2F)ccn1 [Compound A-79] | 416 nM
20 | O=S1(=O)CCN(c2ccc(CNc3nsc(-c4ccc5ncccc5c4)n3)cn2)CC1 [Compound A-188] | 4.6 nM
21 | CSc1ncc2c(n1)CCN(c1cc(NCc3ccc(-c4ccnc(C)c4)cc3)ncn1)C2=O [Compound A-137, 6-(6-(4-(2-methylpyridin-4-yl)benzylamino)pyrimidin-4-yl)-2-(methylthio)-7,8-dihydropyrido[4,3-d]pyrimidin-5(6H)-one] | 3000 nM
22 | Cc1cc(-c2ncc(CNc3nccc(-c4cc5cccnc5cn4)n3)cc2C#N)ccn1 [Compound A-183, 5-((4-(1,7-naphthyridin-6-yl)pyrimidin-2-ylamino)methyl)-2′-methyl-2,4′-bipyridine-3-carbonitrile] | 2.1 nM
23 | Cc1cc(-c2ncc(CNc3ncnc(N4CCn5nnnc5C4)c3F)cc2C#N)ccn1 [Compound A-91] | 53 nM
24 | Cc1cc(-c2ncc(CNc3ncnc(N4CCc5ncccc5C4)c3F)cc2F)ccn1 [Compound A-45] | 0.4 nM
25 | Cc1cc(-c2ncc(CNc3ncnc(N4CCn5nncc5C4)c3F)cc2F)ccn1 [Compound A-95] | 15 nM
26 | CS(=O)(=O)CCNc1ccc(CNc2nccc(-c3ccc4ncccc4c3)n2)cn1 [Compound A-181] | 350 nM
27 | Cc1cc(-c2ncc(CNc3nsc(N4CCc5ncccc5C4)n3)cc2C#N)ccn1 [Compound A-198, 5-((5-(7,8-dihydro-1,6-naphthyridin-6(5H)-yl)-1,2,4-thiadiazol-3-ylamino)methyl)-2′-methyl-2,4′-bipyridine-3-carbonitrile] | 0.42 nM
28 | Cc1cc(-c2ccc(CNc3ncnc(N4CCc5ncccc5C4)c3F)cn2)ccn1 [Compound A-32] | 2 nM
29 | N#Cc1cnc2cc(CNc3ncnc(N4CCc5ncccc5C4)c3F)ccc2c1 [Compound A-72] | 0.64 nM
30 | Cc1cc(-c2ncc(CNc3nsc(-c4cc5cccnc5cn4)n3)cc2C#N)ccn1 [Compound A-197] | 0.31 nM

The remaining lines, values ahead:

Row | IC50 | Compound
31 | 2 nM | Cc1cc(-c2cnc(CNc3ncnc(-c4ccc5ncccc5c4)c3F)cn2)ccn1 [Compound A-63]
32 | 1.2 nM | Cc1cc(-c2ccc(CNc3nccc(-c4ccc5ncccc5c4)n3)cc2)ccn1 [Compound A-154]
33 | 0.27 nM | Cc1cc(-c2ncc(CNc3nccc(-c4ccc5ncccc5c4)c3F)cn2)ccn1 [Compound A-100]
34 | 5.2 nM | Fc1c(-c2ccc3ncccc3c2)ccnc1NCc1ccc(-n2ccnc2)cc1 [Compound A-105]
35 | 3 nM | Cc1cc(-c2ncc(CNc3ncnc(-c4ccc5ncccc5c4)c3F)cc2C)ccn1 [Compound A-34]
36 | 16 nM | Cc1cn(-c2ccc(CNc3nccc(-c4ccc5ncccc5c4)c3F)cc2)cn1 [Compound A-107]
37 | 36 nM | Cc1cc(-c2ccc(CNc3ncnc(-c4ccc5cccnc5c4)c3F)cc2)ccn1 [Compound A-3]
38 | 68 nM | c1ccc2cc(-c3cc(NCc4ccc(-c5ccncc5)cc4)ncn3)ccc2c1 [Compound A-146]
39 | 0.06 nM | COc1cc(CNc2nccc(-c3ccc4ncccc4n3)c2F)cnc1-c1ccnc(C)c1 [Compound A-125]
40 | 1 nM | Cc1cc(-c2ccc(CNc3ncnc(-c4ccc5ncccc5c4)c3F)cn2)ccn1 [Compound A-31]
41 | 200 nM | N#Cc1ccc2nc(CNc3nccc(-c4ccc5ncccc5c4)n3)ccc2c1 [Compound A-178]
42 | 0.81 nM | Cc1cc(-c2ncc(CNc3ncnc(-c4ccc5ncccc5c4)c3F)cn2)ccn1 [Compound A-60]
43 | 14 nM | Cc1cc(-c2ccc(CNc3ncnc(-c4ccc(Cl)c(Cl)c4)c3F)cc2)ccn1 [Compound A-21]
44 | 3000 nM | Cc1cc(-c2ccc(CNc3ncnc(-c4ccc5nncn5c4)c3F)cc2)ccn1 [Compound A-55]
45 | 0.12 nM | Cc1cc(-c2ncc(CNc3nccc(-c4ccc5nccnc5c4)c3F)cc2F)ccn1 [Compound A-124]
46 | 10 nM | N#Cc1ccc2cc(CNc3nccc(-c4ccc5ncccc5c4)c3F)cnc2c1 [Compound A-119]
47 | 0.1 nM | Cc1cc(-c2ncc(CNc3nsc(-c4ccc5ncccc5c4)n3)cc2F)ccn1 [Compound A-192]
48 | 106 nM | c1cnc2ccc(-c3ccnc(NCc4ccc(-n5ccnc5)cc4)n3)cc2c1 [Compound A-173]
49 | 1.6 nM | Fc1c(NCc2ccc(-c3ccncn3)cc2)ncnc1-c1ccc2ncccc2c1 [Compound A-77]

Row | IC50 | Compound
50 | 10 nM | Cc1cc(-c2ccc(CNc3cc(-c4ccc5cnccc5c4)ncn3)cc2)ccn1 [Compound A-148]
51 | 0.39 nM | Cc1cc(-c2ncc(CNc3ncnc(-c4ccc5ncccc5c4)c3F)cc2C#N)ccn1 [Compound A-57]
52 | 318 nM | N#Cc1cnc2cc(CNc3nccc(-c4ccc5ncccc5c4)c3F)ccc2c1 [Compound A-118]
53 | 51 nM | Cc1cn(-c2ccc(CNc3nsc(-c4ccc5ncccc5c4)n3)cc2)cn1 [Compound A-187]
54 | 285 nM | Cc1cc(-c2ccc(CNc3ncnc(-c4ccc5[nH]cnc5c4)c3F)cc2)ccn1 [Compound A-10]
55 | 0.11 nM | Fc1c(-c2ccc3ncccc3c2)ccnc1NCc1ccc(-c2ccncc2)cc1 [Compound A-104]
56 | > 1000 nM | Fc1c(NCc2ccc(-n3ccnc3)cc2)ncnc1-c1ccc2ccccc2c1 [Compound A-40]
57 | 2.9 nM | Cc1cc(-c2ccc(CNc3ncnc(-c4cnc5ccccc5c4)c3F)cc2)ccn1 [Compound A-2]
58 | 17 nM | Cc1cc(-c2ccc(C(C)Nc3ncnc(-c4ccc5ccccc5c4)c3F)cc2)ccn1 (centres unmarked) [Compound A-28]
59 | 3000 nM | Cc1cc(-c2ccc(CNc3cc(-c4ccc5ccccc5c4)nc(N)n3)cc2)ccn1 [Compound A-153]
60 | 3000 nM | CSc1nc(NCc2ccc(-c3ccnc(C)c3)cc2)cc(-c2ccc3ccccc3c2)n1 [Compound A-140]
61 | 27 nM | Cc1cc(-c2ccc(CNc3ncnc(-c4ccc5c(c4)OCCO5)c3F)cc2)ccn1 [Compound A-16]
62 | 1.5 nM | Cc1cc(-c2ccc(CNc3ncnc(N4CCc5ncccc5C4)c3F)cc2)ccn1 [Compound A-26]
63 | 3.7 nM | Cc1cc(-c2ncc(CNc3nccc(-c4ccc5ncccc5c4)n3)cc2C)ccn1 [Compound A-170]
64 | 0.06 nM | Cc1cc(-c2ncc(CNc3nccc(-c4ccc5ncccc5c4)c3F)cc2F)ccn1 [Compound A-98]
65 | 129 nM | Cn1nccc1-c1ccc(CNc2ncnc(-c3ccc4ccccc4c3)c2F)cc1 [Compound A-39]
66 | 120 nM | Cc1cc(-c2ccc(CNc3ncnc(-c4ccc5ccccc5c4)n3)cc2)ccn1 [Compound A-167]
67 | 2.1 nM | Cc1cc(-c2ccc(CNc3ncnc(-c4ccc5nc(C)ccc5c4)c3F)cc2)ccn1 [Compound A-5]
68 | 0.31 nM | Cc1cc(-c2ccc(CNc3nccc(-c4ccc5ncccc5c4)c3F)cn2)ccn1 [Compound A-101]
